Four compounds from patent US4094979A, “Orally active cephalosporins” (American Home Products Corporation, priority 1976, dated 1978) can be followed below.

In brackets after ≈: the same amount, converted by molar mass. Counter-ions that a name gives are not always drawn.

Broadly, the MIC is the lowest concentration that inhibits growth of the organism. A higher MIC goes with a need for much substance.

Assay [1] relates to E. Coli W-102. Nature of the assay: oral antibacterial activity in intraperitoneally infected CD-1 mice. It counts as in vivo. The conditions noted are these: E. Coli W-102, at 7.2 mg/mouse. As to the method:
(§1) The oral antibacterial activity of the compounds of this invention was establihsed by intraperitoneally infecting four groups of 10 male mice CD-1 strain weighing 17-19 grams with 0.5 milliliter of a standardized suspension of bacterium in 5 percent gastric mucin. The animals were then randomized and at 6 hours post infection a single dose of the antibacterial compound being tested was given orally at 7.2, 3.6, 1.8 and 0.9 mg/mouse to each group of 10 mice.
(§2) Testing against E. Coli (920-LD95), as a general representative of gram-negative bacteria, was followed by testing against Proteus vulgaris (347) as an example of a special application against a gram negative bacterium. In the oral anti-bacterial activity test, an arbitrary maximum dose is set at 7.2 milligrams per mouse below which activity must be found before a compound is considered orally active. The arbitrary maximum dose of 7.2 milligrams per mouse represents a practical dose limit in terms of the potency of known orally active antibacterial agents.

Assay [2] relates to E. Coli (E-2). The assay is described as above. It counts as in vivo. The protocol:
as §1, §2

In assay [3] the test system is E. Coli (E-3). Described as above. It counts as in vivo. The protocol: as §1, §2
Assay [4] deals with E. Coli (920). Described as above. It counts as in vivo. The protocol:
as §1, §2

Assay [5] relates to Proteus vulgaris (347). The description is as above. It counts as in vivo. The protocol:
as §1, §2

The subject of assay [6] is Kl Pn. The description is as above. It is filed as in vivo. To be noted: P.O., single dose 6 hours post infection, 14 days. As to the method: as §1, §2
The test system of assay [7] is St Au (Smith). Described as above. It counts as in vivo. As to the method:
as §1, §2

Assay [8] concerns Pr Mi. The description is as above. It is filed as in vivo. The conditions noted are these: P.O., single dose 6 hours post infection, 14 days. The protocol: as §1, §2
Assay [9] deals with St Py. Described as above. It counts as in vivo. The conditions noted are these: P.O., single dose 6 hours post infection, 14 days. The protocol:
as §1, §2

Assay [10] relates to Pr Mi 9921. Kind of assay: in vitro agar serial dilution, MIC. It is filed as cell-based. The conditions noted are these: strain 9921.
Assay [11] concerns En Ae 13048. Kind of assay: in vitro agar serial dilution, MIC. It is filed as cell-based. The conditions noted are these: strain 13048.
Assay [12] concerns Sa Pa 11737. Kind of assay: in vitro agar serial dilution, MIC. It is filed as cell-based. To be noted: strain 11737.
For assay [13], the system named is St Au CHP. Nature of the assay: in vitro agar serial dilution, MIC. It counts as cell-based. The conditions noted are these: strain CHP.
The subject of assay [14] is St Au 6538P. Nature of the assay: in vitro agar serial dilution, MIC. It counts as cell-based. The conditions noted are these: strain 6538P.
Assay [15] concerns Kl Pn 10031. Kind of assay: in vitro agar serial dilution, MIC. It counts as cell-based. To be noted: strain 10031.
For assay [16], the system named is Es In 65-1. Kind of assay: in vitro agar serial dilution, MIC. It is filed as cell-based. To be noted: strain 65-1.
Assay [17] relates to My Sm 10143. Nature of the assay: in vitro agar serial dilution, MIC. It is filed as cell-based. To be noted: strain 10143.
Assay [18] relates to St Au 53-180. Nature of the assay: in vitro agar serial dilution, MIC. It counts as cell-based. To be noted: strain 53-180.
The subject of assay [19] is Ps Ae 10145. Kind of assay: in vitro agar serial dilution, MIC. It is filed as cell-based. The conditions noted are these: strain 10145.
In assay [20] the test system is St Au Smith. Kind of assay: in vitro agar serial dilution, MIC. To be noted: strain Smith. It is filed as cell-based.
Assay [21] relates to Ne Ca 819. Kind of assay: in vitro agar serial dilution, MIC. It is filed as cell-based. To be noted: strain 819.
Assay [22] deals with Es Co 9637. Kind of assay: in vitro agar serial dilution, MIC. The conditions noted are these: strain 9637. It counts as cell-based.
The mark [23] stands for this setting: P.O., single dose 6 hours post infection, 14 days.
Setting [24] is: E. Coli, P.O., single dose 6 hours post infection, 14 days.
Setting [25] is: Pr Bu, P.O., single dose 6 hours post infection, 14 days.

Consider `Cn1nnnc1SCC1=C(C(=O)O)N2C(=O)C(NC(=O)CCN3C(=O)CSC3=S)C2SC1` (stereo not drawn), for which the oral antibacterial activity entry in assay [1] is “inactive”. In addition, the CD50 in [2] is on record as 3.30 mg/mouse; in assay [3], 2.12 mg/mouse; in assay [4] (E. Coli (920), oral), 3.05 mg/mouse; in assay [5] (Pr vulgaris (347), oral), 5.90 mg/mouse.

With `CC1=C(C(=O)O)N2C(=O)[C@@H](NC(=O)[C@H](N)C3=CCC=CC3)[C@H]2SC1` [Cephradine, reference compound], the CD50 is recorded as 2.42 mg/mouse in assay [6]; 0.140 mg/mouse in [7] (setting [23]); 2.25 mg/mouse in assay [8]; 2.27 mg/mouse in [4] (setting [24]); 6.52 mg/mouse in assay [5] (setting [25]); less than 0.45 mg/mouse in assay [9].

Consider `Cn1nnnc1SCC1=C(C(=O)O)N2C(=O)C(NC(=O)CCN3C(=O)CSC3=S)C2SC1` (stereo not drawn) [Ex. 1-Na salt], for which the CD50 is on record as 1.36 mg/mouse in [6]; 2.73 mg/mouse in [7] (setting [23]); 4.49 mg/mouse in assay [8]; 2.35 mg/mouse in assay [4] (setting [24]); 5.97 mg/mouse in assay [5] (setting [25]); greater than 3.6 mg/mouse in [9].

In the case of `Cn1nnnc1SCC1=C(C(=O)O)N2C(=O)C(NC(=O)CCN3C(=O)CSC3=S)C2SC1` (stereo not drawn) [Example 1 acid], the MIC was 0.97 µg/mL (≈ 1.88 µM) in assay [10]; 250 µg/mL (≈ 485 µM) in assay [11]; 0.97 µg/mL (≈ 1.88 µM) in assay [12]; 7.81 µg/mL (≈ 15.1 µM) in assay [13]; 1.95 µg/mL (≈ 3.78 µM) in assay [14]; 3.9 µg/mL (≈ 7.56 µM) in [15]. The MIC in [16] is 62.5 µg/mL (≈ 121 µM); in assay [17] it was 250 µg/mL (≈ 485 µM); in assay [18], 3.9 µg/mL (≈ 7.56 µM); in assay [19], 250 µg/mL (≈ 485 µM); in assay [20] it was 1.95 µg/mL (≈ 3.78 µM); in assay [21] it was 31.3 µg/mL (≈ 60.7 µM). The compound further yielded an MIC in [22] of 3.9 µg/mL (≈ 7.56 µM). Moreover, the CD50 in assay [7] (buffered to pH 4.9 in aqueous solution) is on record as 2.73 mg/mouse; in assay [4] (E. Coli (920), buffered to pH 4.9 in aqueous solution), 2.97 mg/mouse; in assay [5] (Pr vulgaris (Pr-347), buffered to pH 4.9 in aqueous solution), 5.97 mg/mouse.
